Source: patent publication US20250090552A1, “MESALAMINE PHARMACEUTICAL FORMULATIONS AND METHODS OF USE THEREOF” (Intact Therapeutics, Inc., priority 2022, published 2025)
Values belong to the compound of their own block, whether it stands above or below them.

Assays:
Assay type in all cases: physicochemical
[1] = Gelation temperature (Tg/Tgel) of diluent and reconstituted formulation, initial and on stability storage
Method: The target for the 2 compartment formulations: • Gelation temperature 30-37 C • Gelation time—less than 5 minutes • Reconstitution time—less than 1 minutes • Viscosity at RT—less than 3000 cps • Reconstituted formulation should be stable for at least 3 hours
To understand the reproducibility of the gelation temperature, multiple batches were prepared and stability was monitored. In addition to this in one of batch, source of Mesalamine is varied to understand its impact on the various physical parameters.
During the stability study, only gelation temperature and the pH of the reconstituted formulation was monitored.
Formulation with 2% Lipoid S 100 has been considered as the lead formula. Reproducible batches with batch size (3-4 Kg) were manufactured and stability was monitored. These batches were packed into different packaging material MoC to understand its impact on the physical properties.

[2] = Stability of one-part formulations stored at 60° C.; conditions: after preparation of one-part formulations; oxidation in an aqueous solution
[3] = Excipient compatibility study (gelation temperature, constant 15% poloxamer 407); conditions: change from initial
Method: Excipients were studied for compatibility. Constant—15% poloxamer 407 was used. The compatibility study was carried out with the following excipients: Mesalamine—6.67%; Transcutol—10%; EDTA—0.1%; Polocarbophil—0.25%+Tris—0.15%; TPGS—0.2%; NaCl—0.5%; Sodium metabisulfite—0.2%; PVA 30 CPS—1%; Kollidon 30-1%. The following lipids were investigated: DSPC—0.5%+DPCC—0.5%; Phospholipon 90G—1%; Lipoid S 100-1%; Phospholipon 90H—1%; Lecithin—1%. The following combination of poloxamer grades was also studied Poloxamer 188-1.5, 2.5 and 5%. No or marginal impact (1-2° C. from initial) was found for the following excipients: Transcutol, EDTA, TPGS, NaCl, and PVA. Moderate impact (2-5° C. from initial) was found with Mesalamine. […] No or marginal impact (1-2° C. from initial) was found in combinations with DSPC+DPCC, Phospholipon 90 G, and Lipoid S 100. […] All poloxamer combinations were stable for 28 days.

effect of additive on gelation temperature [1]: lowers the gelation temperature
Structure (SMILES): Cc1cc(C(C)(C)C)c(O)c(C(C)(C)C)c1 [BHT]

time to turn brown [2]: ≤ 3 days
Structure (SMILES): Nc1ccc(O)c(C(=O)O)c1 [Mesalamine, 5-aminosalicylic acid]

impact on gelation temperature [3]: Significant impact
Structure (SMILES): O=S([O-])S(=O)(=O)[O-].[Na+].[Na+] [sodium metabisulfite]
